“Also recorded” adds a separate entry of the source.
System: asthma (attributed by the author to a brain tumor)
Experiment: Self-treatment of the inventor's asthma by repeated deep inhalation of evaporated free base cocain
Details: inventor's self-report

In the case of `COC(=O)[C@H]1[C@@H](OC(=O)c2ccccc2)C[C@@H]2CC[C@H]1N2C` [cocain], the “Outcome on asthma / asthma attacks” value (one person, evaporated free base piece about 1/10 gram inhaled once per half hour, 32 sessions over 16 hours, outcome realized 4 months later) is reported as “effected the cure of my asthma; also recorded: not getting any more asthma attacks” and the “Time until the metabolic use of one inhaled dose came to an end (session duration)” value (one full deep breath of evaporated free base cocain per session) is reported as “approximately one half”.

Source: patent US20050080103A1, “Procedure for asthmatic, and other non-invasive surgery for brain tumor cures” (priority 2003, published 2005)
